According to US11236087B2, “Highly active pyrazolo-piperidine substituted indole-2-carboxamides active against the hepatitis B virus (HBV)” (AiCuris GmbH & Co. KG, priority 2017, dated 2022):
pEC50: −log10 of the molar value.

How the values were obtained:
HBV = experiment: Determination of HBV DNA from the supernatants of HepAD38 cells (anti-HBV activity); type: cell-based, hepatitis B virus; details: Hepatitis B virus, 144 h; HBV DNA in HepAD38 supernatant, day 6, qPCR; read-out: Cell Activity (EC50)
Description: Determination of HBV DNA from the Supernatants of HepAD38 Cells
The anti-HBV activity was analysed in the stable transfected cell line HepAD38, which has been described to secrete high levels of HBV virion particles (Ladner et al., 1997). In brief, HepAD38 cells were cultured at 37° C. at 5% CO2 and 95% humidity in 200 μl maintenance medium, which was Dulbecco's modified Eagle's medium/Nutrient Mixture F-12 (Gibco, Karlsruhe), 10% fetal bovine serum (PAN Biotech Aidenbach) supplemented with 50 μg/ml penicillin/streptomycin (Gibco, Karlsruhe), 2 mM L-glutamine (PAN Biotech, Aidenbach), 400 μg/ml G418 (AppliChem, Darmstadt) and 0.3 μg/ml tetracycline. Cells were subcultured once a week in a 1:5 ratio, but were usually not passaged more than ten times. For the assay 60,000 cells were seeded in maintenance medium without any tetracycline into each well of a 96-well plate and treated with serial half-log dilutions of test compound. To minimize edge effects the outer 36 wells of the plate were not used but were filled with assay medium. On each assay plate six wells for the virus control (untreated HepAD38 cells) and six wells for the cell control (HepAD38 cells treated with 0.3 μg/ml tetracycline) were allocated, respectively. In addition, one plate set with reference inhibitors like BAY 41-4109, entecavir, and lamivudine instead of screening compounds were prepared in each experiment. In general, experiments were performed thrice in triplicates. At day 6 HBV DNA from 100 μl filtrated cell culture supernatant (AcroPrep Advance 96 Filter Plate, […] Supor membran, PALL GmbH, Dreieich) was automatically purified on the MagNa Pure LC instrument using the MagNA Pure 96 DNA and Viral NA Small Volume Kit (Roche Diagnostics, Mannheim) according to the instructions of the manufacturer. EC50 values were calculated from relative copy numbers of HBV DNA In brief, 5 μl of the 100 μl eluate containing HBV DNA were subjected to PCR LC480 Probes Master Kit (Roche) together with 1 μM antisense primer […], 0.5 μM sense primer […], 0.3 μM hybprobes […]-FL and LC640-[…]-PH (TIBMoBiol, Berlin) to a final volume of 12.5 μl. The PCR was performed on the Light Cycler 480 real time system (Roche Diagnostics, Mannheim) using the following protocol: Pre-incubation for 1 min at 95° C., amplification: 40 cycles×(10 sec at 95° C., 50 sec at 60° C., 1 sec at 70° C.), cooling for 10 sec at 40° C. Viral load was quantitated against known standards using HBV plasmid DNA of pCH-9/3091 (Nassal et al., 1990, Cell 63: 1357-1363) and the LightCycler 480 SW 1.5 software (Roche Diagnostics, Mannheim) and EC50 values were calculated using non-linear regression with GraphPad Prism 6 (GraphPad Software Inc., La Jolla, USA).

[1] = Cell viability assay (AlamarBlue) in HepAD38 cells; details: human

| Structure (SMILES) | pEC50 (HBV) | CC50 at 6 days [1] [µM] |
| --- | --- | --- |
| CO/N=C(/c1n[nH]c2c1CN(C(=O)c1cc3ccccc3[nH]1)CC2)C1CC1 [Example 288, (E)-{cyclopropyl[5-(1H-indole-2-carbonyl)-1H,4H,5H,6H,7H-pyrazolo[4,3-c]pyridin-3-yl]methylidene}(methoxy)amine] | 4.60 to 6.00 | > 10 |
| Cn1ncc2c1CN(C(=O)c1n[nH]c3c1CN(C(=O)c1cc4ccccc4[nH]1)CC3)C2 [Example 168, 2-(3-{1-methyl-1H,4H,5H,6H-pyrrolo[3,4-c]pyrazole-5-carbonyl}-1H,4H,5H,6H,7H-pyrazolo[4,3-c]pyridine-5-carbonyl)-1H-indole] | 4.60 to 6.00 | > 10 |
| O=C(c1cc2c(F)c(F)ccc2[nH]1)N1CCc2n[nH]c(C3CCC3)c2C1 [Example 391, 2-{3-cyclobutyl-2H,4H,5H,6H,7H-pyrazolo[4,3-c]pyridine-5-carbonyl}-4,5-difluoro-1H-indole] | > 6.00 | > 10 |
| O=C(c1cc2c(Cl)cc(F)cc2[nH]1)N1CCc2[nH]nc(C(=O)N3CCC(F)(F)C3)c2C1 [Example 229, 4-chloro-2-[3-(3,3-difluoropyrrolidine-1-carbonyl)-1H,4H,5H,6H,7H-pyrazolo[4,3-c]pyridine-5-carbonyl]-6-fluoro-1H-indole] | > 6.00 | > 10 |
| O=C(c1cc2c(F)cccc2[nH]1)N1CCc2n[nH]c(C3CCC3)c2C1 [Example 397, 2-{3-cyclobutyl-2H,4H,5H,6H,7H-pyrazolo[4,3-c]pyridine-5-carbonyl}-4-fluoro-1H-indole] | > 6.00 | > 10 |
| CN(C(=O)c1[nH]nc2c1CN(C(=O)c1cc3cc(F)ccc3[nH]1)CC2)C1CC1 [Example 321, N-cyclopropyl-5-(5-fluoro-1H-indole-2-carbonyl)-N-methyl-2H,4H,5H,6H,7H-pyrazolo[4,3-c]pyridine-3-carboxamide] | > 6.00 | > 10 |
| O=C(c1cc2ccc(F)cc2[nH]1)N1CCc2n[nH]c(C3CCC3)c2C1 [Example 393, 2-{3-cyclobutyl-2H,4H,5H,6H,7H-pyrazolo[4,3-c]pyridine-5-carbonyl}-6-fluoro-1H-indole] | > 6.00 | > 10 |
| O=C(c1cc2c(F)c(F)c(F)cc2[nH]1)N1CCc2n[nH]c(-c3cscn3)c2C1 [Example 11, 4,5,6-trifluoro-2-[3-(1,3-thiazol-4-yl)-2H,4H,5H,6H,7H-pyrazolo[4,3-c]pyridine-5-carbonyl]-1H-indole] | > 6.00 | > 10 |
| O=C(c1cc2ccccc2[nH]1)N1CCc2[nH]nc(C(=O)N3CC[C@H](F)C3)c2C1 [Example 224, 2-{3-[(3S)-3-fluoropyrrolidine-1-carbonyl]-1H,4H,5H,6H,7H-pyrazolo[4,3-c]pyridine-5-carbonyl}-1H-indole] | > 6.00 | > 10 |
| O=C(c1cc2c(Cl)cc(F)cc2[nH]1)N1CCc2[nH]nc(C34CC(C3)C4)c2C1 [Example 335, 2-(3-{bicyclo[1.1.1]pentan-1-yl}-1H,4H,5H,6H,7H-pyrazolo[4,3-c]pyridine-5-carbonyl)-4-chloro-6-fluoro-1H-indole] | > 6.00 | > 10 |
| O=C(c1cc2cc(F)c(F)cc2[nH]1)N1CCc2n[nH]c(C3CCC3)c2C1 [Example 390, 2-{3-cyclobutyl-2H,4H,5H,6H,7H-pyrazolo[4,3-c]pyridine-5-carbonyl}-5,6-difluoro-1H-indole] | > 6.00 | > 10 |
| CN(C(=O)c1n[nH]c2c1CN(C(=O)c1cc3ccccc3[nH]1)CC2)C1(COC(=O)c2ccccc2)CC1 [Example 219, {1-[N-methyl 5-(1H-indole-2-carbonyl)-1H,4H,5H,6H,7H-pyrazolo[4,3-c]pyridine-3-amido]cyclopropyl}methyl benzoate] | > 6.00 | > 10 |
| O=C(c1cc2cc(F)c(F)cc2[nH]1)N1CCc2n[nH]c(-c3cscn3)c2C1 [Example 14, 5,6-difluoro-2-[3-(1,3-thiazol-4-yl)-2H,4H,5H,6H,7H-pyrazolo[4,3-c]pyridine-5-carbonyl]-1H-indole] | > 6.00 | > 10 |
| CN(C(=O)c1n[nH]c2c1CN(C(=O)c1cc3c(F)cc(F)cc3[nH]1)CC2)C1(CO)CC1 [Example 238, 5-(4,6-difluoro-1H-indole-2-carbonyl)-N-[1-(hydroxymethyl)cyclopropyl]-N-methyl-1H,4H,5H,6H,7H-pyrazolo[4,3-c]pyridine-3-carboxamide] | > 6.00 | > 10 |
| CCc1cc(F)cc2[nH]c(C(=O)N3CCc4[nH]nc(C(=O)N5CCCC56CC6)c4C3)cc12 [Example 214, 2-(3-{4-azaspiro[2.4]heptane-4-carbonyl}-1H,4H,5H,6H,7H-pyrazolo[4,3-c]pyridine-5-carbonyl)-4-ethyl-6-fluoro-1H-indole] | > 6.00 | > 10 |
| CCc1cc(F)cc2[nH]c(C(=O)N3CCc4[nH]nc(C(=O)N5CCC(F)(F)C5)c4C3)cc12 [Example 227, 2-[3-(3,3-difluoropyrrolidine-1-carbonyl)-1H,4H,5H,6H,7H-pyrazolo[4,3-c]pyridine-5-carbonyl]-4-ethyl-6-fluoro-1H-indole] | > 6.00 | > 10 |
| O=C(c1cc2c(Cl)cccc2[nH]1)N1CCc2n[nH]c(C3CCC3)c2C1 [Example 387, 4-chloro-2-{3-cyclobutyl-2H,4H,5H,6H,7H-pyrazolo[4,3-c]pyridine-5-carbonyl}-1H-indole] | > 6.00 | > 10 |
| CCc1c(F)ccc2[nH]c(C(=O)N3CCc4n[nH]c(-c5cscn5)c4C3)cc12 [Example 25, 4-ethyl-5-fluoro-2-[3-(1,3-thiazol-4-yl)-2H,4H,5H,6H,7H-pyrazolo[4,3-c]pyridine-5-carbonyl]-1H-indole] | 4.60 to 6.00 | > 10 |
| CC1c2c(-c3cscn3)n[nH]c2CCN1C(=O)c1cc2c(Cl)cc(F)cc2[nH]1 (centres unmarked) [Example 35, 4-chloro-6-fluoro-2-[4-methyl-3-(1,3-thiazol-4-yl)-1H,4H,5H,6H,7H-pyrazolo[4,3-c]pyridine-5-carbonyl]-1H-indole] | > 6.00 | > 32 |
| O=C(c1cc2cccc(F)c2[nH]1)N1CCc2n[nH]c(C3CCC3)c2C1 [Example 392, 2-{3-cyclobutyl-2H,4H,5H,6H,7H-pyrazolo[4,3-c]pyridine-5-carbonyl}-7-fluoro-1H-indole] | > 6.00 | > 10 |
| CN(C(=O)c1n[nH]c2c1CN(C(=O)c1cc3c(F)c(F)ccc3[nH]1)CC2)C1(CO)CC1 [Example 240, 5-(4,5-difluoro-1H-indole-2-carbonyl)-N-[1-(hydroxymethyl)cyclopropyl]-N-methyl-1H,4H,5H,6H,7H-pyrazolo[4,3-c]pyridine-3-carboxamide] | > 6.00 | > 10 |
| O=C(c1cc2c(Cl)c(F)ccc2[nH]1)N1CCc2n[nH]c(-c3cscn3)c2C1 [Example 13, 4-chloro-5-fluoro-2-[3-(1,3-thiazol-4-yl)-2H,4H,5H,6H,7H-pyrazolo[4,3-c]pyridine-5-carbonyl]-1H-indole] | > 6.00 | > 10 |
| Cc1noc(C2(N(C)C(=O)c3[nH]nc4c3CN(C(=O)c3cc5ccccc5[nH]3)CC4)CC2)n1 [Example 398, 5-(1H-indole-2-carbonyl)-N-methyl-N-[1-(3-methyl-1,2,4-oxadiazol-5-yl)cyclopropyl]-2H,4H,5H,6H,7H-pyrazolo[4,3-c]pyridine-3-carboxamide] | > 6.00 | > 10 |
| O=C(NC1CC1)c1n[nH]c2c1CN(C(=O)c1cc3ccccc3[nH]1)CC2 [Example 220, N-cyclopropyl-5-(1H-indole-2-carbonyl)-1H,4H,5H,6H,7H-pyrazolo[4,3-c]pyridine-3-carboxamide] | 4.60 to 6.00 | > 10 |
| COCCN(C)S(=O)(=O)c1n[nH]c2c1CN(C(=O)c1cc3ccccc3[nH]1)CC2 [Example 212, 5-(1H-indole-2-carbonyl)-N-(2-methoxyethyl)-N-methyl-1H,4H,5H,6H,7H-pyrazolo[4,3-c]pyridine-3-sulfonamide] | 4.60 to 6.00 | > 10 |
